In brackets after ≈: the same amount, converted by molar mass.
Tests used:
Format in all cases: functional
[1] = test system: Pseudomonas aeruginosa; experiment: Antibacterial activity against Pseudomonas aeruginosa assessed as inhibition of bacterial growth by standard broth microdilution method
[2] = test system: Escherichia coli; experiment: Antibacterial activity against Escherichia coli MTCC739 assessed as inhibition of bacterial growth by standard broth microdilution method
[3] = test system: Bacillus subtilis; experiment: Antibacterial activity against Bacillus subtilis MTCC121 assessed as inhibition of bacterial growth by standard broth microdilution method
[4] = test system: Staphylococcus epidermidis; experiment: Antibacterial activity against Staphylococcus epidermidis MTCC435 assessed as inhibition of bacterial growth by standard broth microdilution method
[5] = test system: Staphylococcus epidermidis; experiment: Antibiofilm activity against Staphylococcus epidermidis MTCC435 assessed as inhibition of biofilm formation
[6] = test system: Staphylococcus aureus; experiment: Antibacterial activity against Staphylococcus aureus MTCC96 assessed as inhibition of bacterial growth by standard broth microdilution method
[7] = test system: Pseudomonas aeruginosa; experiment: Antibiofilm activity against Pseudomonas aeruginosa assessed as inhibition of biofilm formation
[8] = test system: Klebsiella pneumoniae; experiment: Antibacterial activity against Klebsiella pneumoniae assessed as inhibition of bacterial growth by standard broth microdilution method
[9] = test system: Staphylococcus aureus; experiment: Antibiofilm activity against Staphylococcus aureus MTCC96 assessed as inhibition of biofilm formation
[10] = test system: Bacillus subtilis; experiment: Antibiofilm activity against Bacillus subtilis MTCC121 assessed as inhibition of biofilm formation
[11] = test system: Escherichia coli; experiment: Antibiofilm activity against Escherichia coli MTCC739 assessed as inhibition of biofilm formation
[12] = test system: Bacillus subtilis; experiment: Potency index, ratio of ciprofloxacin MIC to test compound MIC for antibacterial activity against Bacillus subtilis MTCC121
[13] = test system: Staphylococcus epidermidis; experiment: Potency index, ratio of ciprofloxacin MIC to test compound MIC for antibacterial activity against Staphylococcus epidermidis MTCC435

Row | SMILES | MIC [1] [µg/mL] | MIC [2] [µg/mL] | MIC [3] [µg/mL] | MIC [4] [µg/mL] | BIC [5] [µg/mL] | MIC [6] [µg/mL] | BIC [7] [µg/mL] | MIC [8] [µg/mL] | BIC [9] [µg/mL] | BIC [10] [µg/mL] | BIC [11] [µg/mL] | Ratio [12] | Ratio [13]
1 | Clc1ccccc1-c1nnn2c1-c1ccccc1SC2 | 50 (≈ 167 µM) | > 50 | 12.5 (≈ 41.7 µM) | 25 (≈ 83.4 µM) | 21.2 | 6.25 (≈ 20.8 µM) | 48 | > 50 | 10.7 | 26.1 | – | – | –
2 | O=S1(=O)Cn2nnc(-c3ccccc3Cl)c2-c2ccccc21 | 25 (≈ 75.4 µM) | 50 (≈ 151 µM) | 3.12 (≈ 9.4 µM) | 3.12 (≈ 9.4 µM) | 2.94 | 6.25 (≈ 18.8 µM) | 22.8 | 50 (≈ 151 µM) | 5.88 | 4.15 | 48 | 2 | 2
3 | Cc1cccc(-c2nnn3c2-c2ccccc2SC3)c1 | > 50 | > 50 | > 50 | > 50 | – | > 50 | – | > 50 | – | – | – | – | –
4 | O=S1(=O)Cn2nnc(-c3ccc(Br)cc3)c2-c2ccccc21 | 25 (≈ 66.4 µM) | 6.25 (≈ 16.6 µM) | 12.5 (≈ 33.2 µM) | 50 (≈ 133 µM) | 57.6 | 25 (≈ 66.4 µM) | 20.4 | 50 (≈ 133 µM) | 28.1 | 23.9 | 10.9 | – | –
5 | Cc1ccc(-c2nnn3c2-c2ccccc2SC3)cc1 | 50 (≈ 179 µM) | > 50 | 50 (≈ 179 µM) | 50 (≈ 179 µM) | – | > 50 | – | 50 (≈ 179 µM) | – | – | – | – | –
6 | Cc1cccc(-c2nnn3c2-c2ccccc2S(=O)(=O)C3)c1 | > 50 | > 50 | 50 (≈ 161 µM) | 50 (≈ 161 µM) | – | > 50 | – | > 50 | – | – | – | – | –
7 | Brc1ccc(-c2nnn3c2-c2ccccc2SC3)cc1 | > 50 | 25 (≈ 72.6 µM) | > 50 | > 50 | – | 50 (≈ 145 µM) | – | 50 (≈ 145 µM) | – | – | – | – | –
8 | COc1ccc(-c2nnn3c2-c2ccccc2S(=O)(=O)C3)cc1 | > 50 | > 50 | 25 (≈ 76.4 µM) | 25 (≈ 76.4 µM) | – | 50 (≈ 153 µM) | – | > 50 | – | – | – | – | –
9 | O=S1(=O)Cn2nnc(-c3ccccc3)c2-c2ccccc21 | > 50 | > 50 | 50 (≈ 168 µM) | 25 (≈ 84.1 µM) | – | 25 (≈ 84.1 µM) | – | > 50 | – | – | – | – | –
10 | O=C(O)c1cn(C2CC2)c2cc(N3CCNCC3)c(F)cc2c1=O [CIPROFLOXACIN] | 1.56 (≈ 4.71 µM) | – | 6.25 (≈ 18.9 µM) | 6.25 (≈ 18.9 µM) | 2.24 | 3.12 (≈ 9.42 µM) | 2.75 | 3.12 (≈ 9.42 µM) | 4.88 | 5.5 | 4.29 | – | –
11 | COc1cccc(-c2nnn3c2-c2ccccc2SC3)c1 | > 50 | 50 (≈ 169 µM) | 25 (≈ 84.6 µM) | 50 (≈ 169 µM) | – | 25 (≈ 84.6 µM) | – | > 50 | – | – | – | – | –
12 | COc1ccc(-c2nnn3c2-c2ccccc2SC3)cc1 | > 50 | > 50 | 50 (≈ 169 µM) | > 50 | – | > 50 | – | > 50 | – | – | – | – | –
13 | COc1cccc(-c2nnn3c2-c2ccccc2S(=O)(=O)C3)c1 | 50 (≈ 153 µM) | 50 (≈ 153 µM) | 6.25 (≈ 19.1 µM) | 12.5 (≈ 38.2 µM) | 24.8 | 6.25 (≈ 19.1 µM) | 47.3 | 25 (≈ 76.4 µM) | 4.2 | 3.5 | 52.3 | – | –
14 | Cc1ccc(-c2nnn3c2-c2ccccc2S(=O)(=O)C3)cc1 | 50 (≈ 161 µM) | 25 (≈ 80.3 µM) | 25 (≈ 80.3 µM) | 25 (≈ 80.3 µM) | – | 50 (≈ 161 µM) | – | 50 (≈ 161 µM) | – | – | – | – | –

Source: ChEMBL document CHEMBL4811306, “Fused benzo[1,3]thiazine-1,2,3-triazole hybrids: Microwave-assisted one-pot synthesis, in vitro antibacterial, antibiofilm, and in silico ADME studies” (2021)
